According to ChEMBL document CHEMBL4043145, “Pyridine-pyrimidine amides that prevent HGF-induced epithelial scattering by two distinct mechanisms” (Bioorg Med Chem Lett, 2017):
pEC50, pIC50, pKd: −log10 of the molar value. Activity calls are given as the source filed them. No cut-off for these calls is given here.

Legend:
MDCK-II [1] = assay: Antimigratory activity against MDCK2 cells assessed as inhibition of HGF-induced cell scattering at 1 uM pretreated for 18 hrs followed by HGF addition measured after 20 to 24 hrs by crystal violet staining-based assay relative to control; format: functional; conditions: Canis lupus familiaris
MCF7 = assay: Antiproliferative activity against human MCF7 cells at 10 uM relative to control; format: functional, cell-based
MDCK-II [2] = assay: Antimigratory activity against MDCK2 cells assessed as inhibition of HGF-induced cell scattering pretreated for 18 hrs followed by HGF addition measured after 20 to 24 hrs by crystal violet staining-based assay; format: functional; conditions: Canis lupus familiaris
MDA-MB-468 = assay: Antiproliferative activity against human MDA-MB-468 cells at 10 uM relative to control; format: functional
[3] = Binding affinity to tubulin (unknown origin) by isothermal titration calorimetric analysis; set-up: species or system Homo sapiens
Bos taurus [4] = species on record: Bos taurus; assay: (§1) Inhibition of bovine brain tubulin polymerization
[5] = as §1; set-up: species or system Bos taurus
Bos taurus [6] = species on record: Bos taurus; assay: Inhibition of colchicine binding to bovine brain tubulin up to 25 uM by fluorescence based assay relative to control
Homo sapiens = species on record: Homo sapiens; assay: Binding affinity to tubulin (unknown origin) by CD spectroscopic method

Row | pKd [3] | inhibition (Bos taurus [4]) | pIC50 [5] | inhibition (Bos taurus [6]) [%] | Activity (Homo sapiens) | Structure (SMILES) | inhibition at 1 µM (MDCK-II [1]) [%] | inhibition at 10 µM (MCF7) [%] | pEC50 (MDCK-II [2]) | inhibition at 10 µM (MDA-MB-468) [%]
1 |  |  |  |  |  | Cc1nc(NC(=O)c2cccc([N+](=O)[O-])c2)ccc1I | 71 to 95.9 | 84 | 5.52 | 73
2 | 6.72 | Dose-dependent effect | 6.62 | 70 | Active | Cc1ncc(C(=O)Nc2ccc(-c3cccc(S(=O)(=O)C4CC4)c3)cn2)cn1 |  |  |  | 
